The target of the test is T1, human OX2 receptor (Homo sapiens, UniProt O43614).
T1 construct: expressed in transfected cells
T1 sequence (O43614 1-444): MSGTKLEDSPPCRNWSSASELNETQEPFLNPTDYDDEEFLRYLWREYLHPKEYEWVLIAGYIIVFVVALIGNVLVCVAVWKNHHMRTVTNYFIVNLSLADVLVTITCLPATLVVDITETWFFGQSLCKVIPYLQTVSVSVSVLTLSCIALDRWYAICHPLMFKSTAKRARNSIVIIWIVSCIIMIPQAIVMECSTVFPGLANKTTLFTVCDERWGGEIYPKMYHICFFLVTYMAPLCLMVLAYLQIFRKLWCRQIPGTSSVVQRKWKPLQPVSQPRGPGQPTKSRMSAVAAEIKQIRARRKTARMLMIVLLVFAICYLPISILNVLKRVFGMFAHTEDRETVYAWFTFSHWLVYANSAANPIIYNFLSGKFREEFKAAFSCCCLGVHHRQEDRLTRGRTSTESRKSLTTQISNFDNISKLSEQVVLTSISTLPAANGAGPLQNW
Briefly: Measurement of orexin type 2 receptor agonist activity (calcium fluorescence, Fluo-4 AM, FDSS). The test is classed as cell-based. The note with it: compound at 3 μM; CHO cells forcibly expressing human OX2 receptor; DMSO = 0%, 10 nM orexin A (human) = 100%. In a few lines: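 Agonist response is expressed as % of the fluorescence change given by 10 nM human orexin A, with DMSO as 0%, read over 1 min 40 s on FDSS after compound addition. Cells: stable human OX2 (1-444) CHO-K1 clones, dye-loaded with Fluo-4 AM plus probenecid in HEPES-buffered HBSS with 0.1% BSA.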

Results on ten molecules are retold here after US20240217957A1, “HETEROCYCLIC COMPOUND AND USE THEREOF” (TAKEDA PHARMACEUTICAL COMPANY LIMITED, priority 2022, published 2024).

For `CS(=O)(=O)N[C@@H]1CN(C2=NOC(CF)(c3ncccc3-c3c(F)cc(F)cc3F)C2)CC1(F)F` (stereo partly drawn) [Example 157, N-[(3R)-4,4-difluoro-1-{5-(fluoromethyl)-5-[3-(2,4,6-trifluorophenyl)pyridin-2-yl]-4,5-dihydro-1,2-oxazol-3-yl}pyrrolidin-3-yl]methanesulfonamide], the “OX2R agonist activity (3 μM, %)” value came to 92%.
Under `CC1(c2ncc(F)cc2-c2c(F)cccc2F)CC(N2C[C@@H](NS(C)(=O)=O)C(F)(F)C2)=NO1` (stereo partly drawn) [Example 158, N-[(3R)-1-{5-[3-(2,6-difluorophenyl)-5-fluoropyridin-2-yl]-5-methyl-4,5-dihydro-1,2-oxazol-3-yl}-4,4-difluoropyrrolidin-3-yl]methanesulfonamide] stands 100%; under `CS(=O)(=O)N[C@@H]1CN(C2=NOC(c3c(F)ccc(F)c3-c3c(F)cccc3F)C2)C[C@@H]1F` (stereo partly drawn) [Example 159, N-{(3R,4S)-4-fluoro-1-[5-(2′,3,6,6′-tetrafluoro[1,1′-biphenyl]-2-yl)-4,5-dihydro-1,2-oxazol-3-yl]pyrrolidin-3-yl}methanesulfonamide], 99%; under `CS(=O)(=O)N[C@@H]1CN(C2=NOC(c3c(F)cccc3-c3c(F)cccc3F)C2)CC1(F)F` (stereo partly drawn) [Example 160, N-{(3R)-4,4-difluoro-1-[5-(2′,3,6′-trifluoro[1,1′-biphenyl]-2-yl)-4,5-dihydro-1,2-oxazol-3-yl]pyrrolidin-3-yl}methanesulfonamide], 104%.
For `Cc1ccc(C2(C)CC(N3C[C@@H](NS(C)(=O)=O)C(F)(F)C3)=NO2)c(-c2ncc(F)cc2F)c1` (stereo partly drawn) [Example 161, N-[(3R)-1-{5-[2-(3,5-difluoropyridin-2-yl)-4-methylphenyl]-5-methyl-4,5-dihydro-1,2-oxazol-3-yl}-4,4-difluoropyrrolidin-3-yl]methanesulfonamide] the value was 103%; for `O=S(=O)(CF)N[C@@H]1CN(C2=NO[C@](CF)(c3ncc(F)cc3-c3c(F)cccc3F)C2)C[C@@H]1F` [Example 162, N-[(3R,4S)-1-{(5S)-5-[3-(2,6-difluorophenyl)-5-fluoropyridin-2-yl]-5-(fluoromethyl)-4,5-dihydro-1,2-oxazol-3-yl}-4-fluoropyrrolidin-3-yl]-1-fluoromethanesulfonamide], 103%; for `O=S(=O)(CF)N[C@@H]1CN(C2=NOC(CF)(c3ncc(F)cc3-c3c(F)cc(F)cc3F)C2)C[C@@H]1F` (stereo partly drawn) [Example 163, 1-fluoro-N-[(3R,4S)-4-fluoro-1-{5-(fluoromethyl)-5-[5-fluoro-3-(2,4,6-trifluorophenyl)pyridin-2-yl]-4,5-dihydro-1,2-oxazol-3-yl}pyrrolidin-3-yl]methanesulfonamide], 98%.
For `CS(=O)(=O)N[C@@H]1CN(C2=NOC(c3c(F)cc(F)c(F)c3-c3c(F)cccc3F)C2)C[C@@H]1F` (stereo partly drawn) [Example 166, N-{(3R,4S)-4-fluoro-1-[5-(2′,3,5,6,6′-pentafluoro[1,1′-biphenyl]-2-yl)-4,5-dihydro-1,2-oxazol-3-yl]pyrrolidin-3-yl}methanesulfonamide] the value was 102%; for `O=S(=O)(CF)N[C@@H]1CN(C2=NOC(c3c(F)cc(F)cc3-c3c(F)cccc3F)C2)CC1(F)F` (stereo partly drawn) [Example 169, N-{(3R)-4,4-difluoro-1-[5-(2′,3,5,6′-tetrafluoro[1,1′-biphenyl]-2-yl)-4,5-dihydro-1,2-oxazol-3-yl]pyrrolidin-3-yl}-1-fluoromethanesulfonamide], 98%.
In the case of `O=S(=O)(CF)N[C@@H]1CN(C2=NOC(c3c(F)cccc3-c3c(F)cccc3F)C2)CC1(F)F` (stereo partly drawn) [Example 170, N-{(3R)-4,4-difluoro-1-[5-(2′,3,6′-trifluoro[1,1′-biphenyl]-2-yl)-4,5-dihydro-1,2-oxazol-3-yl]pyrrolidin-3-yl}-1-fluoromethanesulfonamide], the “OX2R agonist activity (3 μM, %)” value was 102%.
